We go through 18 compounds from patent US10961222B2, “Chemical compound of isocitrate dehydrogenase inhibitor, and application thereof” (NANJING SANHOME PHARMACEUTICAL CO., LTD., priority 2016, dated 2021).

The assay concerns the target T1, IDH2-R140Q mutant enzyme (Homo sapiens, UniProt P48735, R140Q).
T1 construct: purchased BPS 71100-1
T1 sequence (P48735 40-452 R140Q): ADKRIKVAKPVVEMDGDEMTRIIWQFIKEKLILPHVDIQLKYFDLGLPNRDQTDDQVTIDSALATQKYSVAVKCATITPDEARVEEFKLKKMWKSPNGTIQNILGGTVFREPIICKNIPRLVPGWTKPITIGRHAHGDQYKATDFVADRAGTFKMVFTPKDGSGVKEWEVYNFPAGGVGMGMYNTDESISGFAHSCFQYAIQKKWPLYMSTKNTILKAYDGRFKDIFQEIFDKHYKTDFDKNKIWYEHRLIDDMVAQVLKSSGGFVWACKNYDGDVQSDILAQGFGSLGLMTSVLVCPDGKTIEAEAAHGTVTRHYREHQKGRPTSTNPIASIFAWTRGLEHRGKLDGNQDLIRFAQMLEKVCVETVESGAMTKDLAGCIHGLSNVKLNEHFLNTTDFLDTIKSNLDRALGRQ
Put plainly: Inhibitory activity of compounds on IDH2-R140Q enzyme in vitro (diaphorase/resazurin fluorescence). Format: biochemical. The conditions noted are these: IDH2-R140Q, pre-incubated 16 h with enzyme and NADPH, reaction 1 h with α-ketoglutarate; read-out: R140Q IC50. How it is done:
Instrument: SpectraMax M3 Multi-Mode Microplate Reader, purchased from Molecular Devices.
In a 96-well plate, 40 μL of reaction buffer containing 2× enzyme (IDH2-WT or IDH2-R140Q) and cofactor (NADP or NADPH) was added to each well of the compound group and the DMSO control group, and 40 μL of reaction buffer containing 2× cofactor (NADP or NADPH) was added to each well of the enzyme-free control group.
20 μL of reaction buffer containing 4× compound to be tested was added to each well of the compound group. The compound was pre-formulated into 200× mother liquor with 100% DMSO; in the final reaction system, the concentration of DMSO was 0.5%. 20 μL of reaction buffer containing DMSO was added to each well of the DMSO control group; in the final reaction system, the concentration of DMSO was 0.5%.
The compound was mixed well with the enzyme and cofactor, and pre-incubated at room temperature for 16 h;
20 μL of reaction buffer containing 4× reaction substrate was added to each well. After mixed uniformly, the mixture was reacted at room temperature for 1 h.
3× termination and detection solution (it was prepared with reaction buffer, the final concentration of Diaphorase was 0.015 mg/mL, and the final concentration of Resazurin was 0.03 mM) was prepared. 40 μL of 3× termination and detection solution was added to each well of the enzyme reaction system. After mixed uniformly, the mixture was incubated at room temperature for 10 min;
Fluorescence values of two wells were obtained and averaged and the activity rate (Activity %) was calculated. The calculation formula: Activity %=(Measured data−Subtract background)/(DMSO Control−Subtract background)×100, wherein “Measured data” is fluorescence value of the compound in the pre-incubated wells, “Subtract background” is the fluorescence value of the enzyme-free control wells, and “DMSO Control” is the fluorescence value in the DMSO pre-incubated wells. Data was processed by GraphPad Prism v5.0 software and fitted to obtain IC50.
For orientation: Alamar Blue is a resazurin reagent that responds to reducing activity.
The term IC50 denotes the point on the concentration scale where inhibition reaches its midpoint. Consider `OC1CCCN(c2nc(Nc3ccnc(C(F)(F)F)c3)nc(-c3cccc(C(F)(F)F)n3)n2)C1` (stereo in doubt) [Example 9, 4-((R)-3-hydroxypiperidin-1-yl)-6-(6-(trifluoromethyl)pyridin-2-yl)-N-(2-(trifluoromethyl)pyridin-4-yl)-1,3,5-triazin-2-amine], for which the IC50 came out at 22 nM.
For `FC(F)(F)c1cc(Nc2nc(-c3cccc(C(F)(F)F)n3)nc(N3CCNCC3)n2)ccn1` [Example 5, 4-(Piperazin-1-yl)-6-(6-(trifluoromethyl)pyridin-2-yl)-N-(2-(trifluoromethyl)pyridin-4-yl)-1,3,5-triazin-2-amine] the value was 25 nM.
The same measure for `FC(F)(F)c1cc(Nc2nc(-c3cccc(C(F)(F)F)n3)nc(N3CCCC(C(F)(F)F)C3)n2)ccn1` (stereo not drawn) [Example 7, 4-(3-(Trifluoromethyl)piperidin-1-yl)-6-(6-(trifluoromethyl)pyridin-2-yl)-N-(2-(trifluoromethyl)pyridin-4-yl)-1,3,5-triazin-2-amine]: 20 nM.
Take `O=S1(=O)CCN(c2nc(Nc3ccnc(C(F)(F)F)c3)nc(-c3cccc(C(F)(F)F)n3)n2)CN1` [Example 8]: the IC50 turned out to be 18 nM.
As for `O[C@H]1CCCN(c2nc(Nc3ccnc(C(F)(F)F)c3)nc(-c3cccc(C(F)(F)F)n3)n2)C1` [Example 10, 4-((S)-3-hydroxypiperidin-1-yl)-6-(6-(trifluoromethyl)pyridin-2-yl)-N-(2-(trifluoromethyl)pyridin-4-yl)-1,3,5-triazin-2-amine], the half-maximal inhibitory concentration (IC50) is 19 nM.
The same measure for `FC1CCCN(c2nc(Nc3ccnc(C(F)(F)F)c3)nc(-c3cccc(C(F)(F)F)n3)n2)C1` (stereo not drawn) [Example 11, 4-(3-Fluoropiperidin-1-yl)-6-(6-(trifluoromethyl)pyridin-2-yl)-N-(2-(trifluoromethyl)pyridin-4-yl)-1,3,5-triazin-2-amine]: 14 nM; for `N#CC1CCCN(c2nc(Nc3ccnc(C(F)(F)F)c3)nc(-c3cccc(C(F)(F)F)n3)n2)C1` (stereo not drawn) [Example 12, 4-(3-Cyanopiperidin-1-yl)-6-(6-(trifluoromethyl)pyridin-2-yl)-N-(2-(trifluoromethyl)pyridin-4-yl)-1,3,5-triazin-2-amine]: 25 nM.
For `FC(F)(F)c1cc(Nc2nc(-c3cccc(C(F)(F)F)n3)nc(C3CCCCN3)n2)ccn1` (stereo not drawn) [Example 13, 4-(Piperidin-2-yl)-6-(6-(trifluoromethyl)pyridin-2-yl)-N-(2-(trifluoromethyl)pyridin-4-yl)-1,3,5-triazin-2-amine], the IC50 is 15 nM.
For `FC1(F)CCN(c2nc(Nc3ccnc(C(F)(F)F)c3)nc(-c3cccc(C(F)(F)F)n3)n2)C1` [Example 15, 4-(3,3-Difluoropyrrolidin-1-yl)-6-(6-(trifluoromethyl)pyridin-2-yl)-N-(2-(trifluoromethyl)pyridin-4-yl)-1,3,5-triazin-2-amine] the value was 18 nM; for `O[C@@H]1CCN(c2nc(Nc3ccnc(C(F)(F)F)c3)nc(-c3cccc(C(F)(F)F)n3)n2)C1` [Example 17, 4-((R)-3-hydroxypyrrolidin-1-yl)-6-(6-(trifluoromethyl)pyridin-2-yl)-N-(2-(trifluoromethyl)pyridin-4-yl)-1,3,5-triazin-2-amine], 23 nM; for `O[C@H]1CCN(c2nc(Nc3ccnc(C(F)(F)F)c3)nc(-c3cccc(C(F)(F)F)n3)n2)C1` [Example 18, 4-((S)-3-hydroxypyrrolidin-1-yl)-6-(6-(trifluoromethyl)pyridin-2-yl)-N-(2-(trifluoromethyl)pyridin-4-yl)-1,3,5-triazin-2-amine], 26 nM.
As for `FC1CCN(c2nc(Nc3ccnc(C(F)(F)F)c3)nc(-c3cccc(C(F)(F)F)n3)n2)CC1` [Example 19, 4-(4-Fluoropiperidin-1-yl)-6-(6-(trifluoromethyl)pyridin-2-yl)-N-(2-(trifluoromethyl)pyridin-4-yl)-1,3,5-triazin-2-amine], the IC50 was 14 nM.
For `OC1(C(F)(F)F)CCN(c2nc(Nc3ccnc(C(F)(F)F)c3)nc(-c3cccc(C(F)(F)F)n3)n2)CC1` [Example 21, 4-(4-Trifluoromethyl-4-hydroxypiperidin-1-yl)-6-(6-(trifluoromethyl)pyridin-2-yl)-N-(2-(trifluoromethyl)pyridin-4-yl)-1,3,5-triazin-2-amine], the half-maximal inhibitory concentration (IC50) is 25 nM.
For `FC1(F)CC=C(c2nc(Nc3ccnc(C(F)(F)F)c3)nc(-c3cccc(C(F)(F)F)n3)n2)CC1` [Example 25, 4-(4,4-Difluorocyclohexyl-1-en-1-yl)-6-(6-(trifluoromethyl)pyridin-2-yl)-N-(2-(trifluoromethyl)pyridin-4-yl)-1,3,5-triazin-2-amine] the value was 15 nM; for `FC1(F)CCC(c2nc(Nc3ccnc(C(F)(F)F)c3)nc(-c3cccc(C(F)(F)F)n3)n2)CC1` [Example 26, 4-(4,4-Difluorocyclohexyl)-6-(6-(trifluoromethyl)pyridin-2-yl)-N-(2-(trifluoromethyl)pyridin-4-yl)-1,3,5-triazin-2-amine], 21 nM.
The same measure for `CC(C)(O)C1CN(c2nc(Nc3ccnc(C(F)(F)F)c3)nc(-c3cccc(C(F)(F)F)n3)n2)C1` [Example 48, 4-(3-(2-propyl-2-ol)azetidin-1-yl)-6-(6-(trifluoromethyl)pyridin-2-yl)-N-(2-(trifluoromethyl)pyridin-4-yl)-1,3,5-triazin-2-amine]: 19 nM; for `FC(F)(F)c1cc(Nc2nc(-c3cccc(C(F)(F)F)n3)nc(N3CCCCC3)n2)ccn1` [Example 50, 4-(piperidin-1-yl)-6-(6-(trifluoromethyl)pyridin-2-yl)-N-(2-(trifluoromethyl)pyridin-4-yl)-1,3,5-triazin-2-amine]: 22 nM; for `N#C[C@@H]1CCN(c2nc(Nc3ccnc(C(F)(F)F)c3)nc(-c3cccc(C(F)(F)F)n3)n2)C1` [Example 52, 4-((R)-3-cyanopyrrolidin-1-yl)-6-(6-(trifluoromethyl)pyridin-2-yl)-N-(2-(trifluoromethyl)pyridin-4-yl)-1,3,5-triazin-2-amine]: 23 nM.
